Results: patent US9938240B2, “Fluorinated derivatives of 3-hydroxypyridin-4-ones” (Apotex Technologies Inc., priority 2009, dated 2018)

Tests used:
[1] = tested on: human neuroblastoma MC-65 cells; experiment: cells
Summary of the method: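 MC-65 cells (conditional Aβ fusion-protein expression, TET-repressed) were washed free of TET and FBS, then exposed to compound ~48 h in serum-free medium without or with 1 μg/mL TET.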

[2] = tested on: SH-SY5Y human neuroblastoma cells
Summary of the method: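 SH-SY5Y cells were treated with a range of compound concentrations, with or without 50 μM H2O2, in serum-free medium for 16–22 h. Viability was measured by MTT and expressed relative to cells receiving neither H2O2 nor compound. Runs without H2O2 assessed cytotoxicity.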

[3] = Benzoic acid hydroxylation assay; details: benzoic acid 1 mM, H2O2 6 mM, FeCl3 30 μM, chelator 30 μM, pH 7.4, up to 81 h
From the text: Benzoic acid is a hydroxyl radical scavenger and reacts with hydroxyl radical to give 2-hydroxy, 3-hydroxy and 4-hydroxybenzoic acids. The benzoic acid hydroxylation assay is a chemical assay designed to detect damage caused by hydroxyl radical (Dean and Nicholson, Free Radical Research 1994, vol 20, 83-101). For example, deferiprone suppresses the formation of hydroxybenzoic acids in the presence of iron salts and hydrogen peroxide, while EDTA and iron salts allow such hydroxylation reactions to take place.
This screening assay involves the use of iron salt, benzoic acid, hydrogen peroxide and the chelator and measures the ability of the chelator to inhibit the formation of hydroxybenzoate as an indicator to prevent hydroxyl radical formation in living system.
Briefly, this procedure is based on the ability of hydroxyl radicals to hydroxylate benzoate to give 2-, 3- and 4-hydroxylated benzoic acid products. Benzoic acid (1 mM) is incubated over time up to 81 h at room temperature in the dark in 10 mM phosphate buffer (pH 7.4) with 6 mM hydrogen peroxide, ferric chloride (30 μM) and the Fe chelator (30 μM). HPLC is the method of choice used to monitor and quantify the amount of 2-, 3- and 4-hydroxylated products formed over time in the reaction mixture, and can be verified against authentic benzoic acid and its hydroxylated products via their respective retention times and areas under curve. In addition, several controls are used: (i) a control without added Fe stock solution and Fe chelator; (ii) a control without added Fe chelator; (iii) EDTA as positive control; and (iv) deferiprone as negative control. The Fe-EDTA system is a hydroxyl radical generator and is known to promote hydroxylation of benzoic acid.

[4] = Stoichiometry of Fe-complexes by Job's method; format: physicochemical; details: 0.1 M MOPS pH 7.4, absorbance at 458 nm
Procedure: In a typical experiment Fe-Apo7053 complex solutions were prepared by mixing a stock solution of Fe^2+ (atomic absorption standard, 989 μg/mL in 1 wt % HCl, Aldrich) and a stock solution of Apo7053 (7.88×10^−3 M in 0.1 M MOPS, pH 7.4). Twelve sample solutions were prepared. While the sum of the total iron concentration ([iron]total) and the total ligand concentration ([L]total) in each of the 12 sample solutions were kept constant (8.00×10^−4 M), the molar fraction of the ligand, α (α=[L]total/([L]total+[iron]total)), for the 12 sample solutions were different, and were prepared as 0.0, 0.1, 0.2, 0.3, 0.4, 0.5, 0.6, 0.7, 0.75, 0.8, 0.9 and 1.0, respectively. The total volume for each of the 12 sample solutions was 5 mL, using MOPS (0.1 M, pH 7.4) as the solvent. The pH of the 12 solutions were adjusted to pH 7.4 with NaOH. The sample solutions were vortexed at rt for 2.5 h, and then stayed at rt overnight. The sample solutions were centrifuged at 4000 rpm for 15 min. The UV-Vis spectrum was recorded at 22° C. for each of the 12 solutions.
A Job's plot was created with the absorbance at 458 nm as the y-axis and α as the x-axis. A maximum absorbance was found at α=0.75, which corresponds to an iron:ligand ratio of 1:3 in the complexes.

## Cc1c(O)c(=O)c(C(N(C)C)C(F)(F)F)cn1C (centres unmarked) [Apo7053, 5-[1-(dimethylamino)-2,2,2-trifluoroethyl]-3-hydroxy-1,2-dimethylpyridin-4(1H)-one]
[1]; Homo sapiens, MC65, 48 h, read-out: EC100 (maximum effective concentration)
  EC100: 10 µM
[1]; Homo sapiens, MC65, 48 h, read-out: TH (threshold protective concentration)
  minimal effective concentration: 0.1 µM
[1]; MC-65, cultured without tetracycline, viability below 80%
  CC2 (cytotoxic concentration): 20 µM
[1]; MC-65, presence of TET, viability below 80%
  CC1 (cytotoxic concentration): 40 µM
[2]; H2O2-treated cells, viability below 80%
  CC2 (cytotoxic concentration): >640 µM
[2]; absence of H2O2, viability below 80%
  CC1 (cytotoxic concentration): 2.2 µM
[3]
  hydroxylation of benzoic acid by Fe chelate: do not promote the hydroxylation of benzoic acid
[4]
  molar fraction of ligand α at maximum absorbance (Job's plot): 0.75
